Like-named read-outs stand apart in the source and are kept apart here.
Legend:
[1] = Vapor-liquid equilibrium still, t-butanol-trichloroethylene azeotrope with extractive distillation agent; format: physicochemical; details: for Relative Volatility: trichloroethylene from t-butanol, Table 10
Text: (§1) The data in Tables 2, 3, 5, 7, 8, 10 and 11 was obtained in a vapor-liquid equilibrium still. In every case, the starting mixture was the trichloroethylene-butanol azeotrope. The relative volatilities are listed for each of the agents.
Seventy grams of the t-butanol-trichloroethylene azeotrope and 30 grams of n-butyl acetate were charged to the vapor-liquid equilibrium still and refluxed for fourteen hours.

[2] = Vapor-liquid equilibrium still, trichloroethylene-n-butanol azeotrope with extractive distillation agent; format: physicochemical
[3] = Vapor-liquid equilibrium still, trichloroethylene-2-butanol azeotrope with extractive distillation agent; format: physicochemical; details: trichloroethylene from 2-butanol, Table 7
Text: as §1
Seventy grams of the trichloroethylene-2-butanol azeotrope and 30 grams of 2-methyl-1-pentanol were charged to the vapor-liquid equilibrium still and refluxed for two hours.

[4] = Vapor-liquid equilibrium still, trichloroethylene-isobutanol azeotrope with extractive distillation agent; format: physicochemical
Text: as §1
Seventy grams of the trichloroethylene-isobutanol azeotrope and 30 grams of n-octanol were charged to the vapor-liquid equilibrium still and refluxed for five hours.

[5] = Procedure: A solution comprising 170 grams of trichloroethylene and 30 grams of t-butanol was placed in the stillpot of the 7.3 theoretical plate glass perforated plate rectification column. When refluxing began, an extractive agent comprising n-butyl acetate was pumped into the column at a rate of 15 ml/min. The temperature of the extractive agent as it entered the column was 85° C. After establishing the feed rate of the extractive agent, the heat input to the trichloroethylene-t-butanol in the stillpot was adjusted to give a total reflux rate of 40 ml/min. After two hours of operation, the overhead and bottoms samples were collected and analysed.
[6] = Glass perforated plate rectification column (7.3 theoretical plates), trichloroethylene / isobutanol; format: physicochemical
Text: The overhead analysis was 97.7% trichloroethylene, 2.3% isobutanol and the bottoms analysis was 84.8% trichloroethylene, 15.2% isobutanol. This gives an average relative volatility of 1.31 for each theoretical plate.

[7] = trichloroethylene from n-butanol, Table 2
[8] = trichloroethylene from isobutanol, Table 5
[9] = Example 7, refluxed fourteen hours
[10] = bottoms, 2 hrs, listed as n-butyl acetate
[11] = overhead, 2 hrs, listed as n-butyl acetate

## 2-Methoxyethyl ether acetate
[1]
  Relative Volatility: 1.85

## CC(=O)O[C@@H]1C[C@H]2CC[C@]1(C)C2(C)C (racemic) [Isobornyl acetate]
[2]; [7]
  Relative Volatility: 1.25

## COCC(C)OC(C)=O (centres unmarked) [1-Methoxy-2-propanol acetate]
[1]
  Relative Volatility: 1.65
[2]
  Relative Volatility: 1.5

## COCC(C)O (centres unmarked) [1-Methoxy-2-propanol]
[1]
  Relative Volatility: 1.65

## CCCCCCCCO [1-Octanol]
[3]
  Relative Volatility: 1.5

## CC(=O)CC(C)=O [2,4-Pentanedione]
[1]
  Relative Volatility: 1.4

## CC(C)CC(=O)CC(C)C [2,6-Dimethyl-4-heptanone]
[2]; [7]
  Relative Volatility: 1.35

## CCC(CC)CO [2-Ethyl butanol]
[3]
  Relative Volatility: 1.85

## CCCCC(CC)CO (centres unmarked) [2-Ethyl-1-hexanol]
[3]
  Relative Volatility: 1.55

## CCCCCC(C)=O [2-Heptanone]
[2]; [7]
  Relative Volatility: 1.7

## CCCC(C)CO (centres unmarked) [2-Methyl pentanol]
[2]; [7]
  Relative Volatility: 3.5

## CCCCCCC(C)O (centres unmarked) [2-Octanol]
[4]; [8]
  Relative Volatility: 2.7

## CCCCCCC(C)=O [2-Octanone]
[2]; [7]
  Relative Volatility: 1.4

## CCCC(C)=O [2-Pentanone]
[1]
  Relative Volatility: 1.9

## CCCCC(=O)CC [3-Heptanone]
[1]
  Relative Volatility: 1.35

## CCCC(=O)CC [3-Hexanone]
[1]
  Relative Volatility: 1.55

## CCC(C)(O)CC [3-Methyl-3-pentanol]
[3]
  Relative Volatility: 1.35

## CCCCCC(=O)CC [3-Octanone]
[2]; [7]
  Relative Volatility: 1.35

## OCCCc1ccccc1 [3-Phenyl-1-propanol]
[3]
  Relative Volatility: 1.65

## CC(C)CC(C)O (centres unmarked) [4-Methyl-2-pentanol]
[4]; [8]
  Relative Volatility: 2.7

## CC(=O)CC(C)C [4-Methyl-2-pentanone]
[1]
  Relative Volatility: 1.5

## CC(=O)CCC(C)C [5-Methyl-2-hexanone]
[1]
  Relative Volatility: 1.3
[2]; [7]
  Relative Volatility: 1.6

## CC(=O)CCC(C)=O [Acetonylacetone]
[2]; [7]
  Relative Volatility: 2.6

## CC(=O)c1ccccc1 [Acetophenone]
[2]; [7]
  Relative Volatility: 1.6

## OCc1ccccc1 [Benzyl alcohol]
[4]; [8]
  Relative Volatility: 2.0
[2]; [7]
  Relative Volatility: 3.5

## OC1CCCCC1 [Cyclohexanol]
[4]; [8]
  Relative Volatility: 2.4
[2]
  Relative Volatility: 3.5

## CC(=O)CC(C)(C)O [Diacetone alcohol]
[3]
  Relative Volatility: 1.45
[4]; [8]
  Relative Volatility: 1.3

## CC(C)CC(O)CC(C)C [Diisobutyl carbinol]
[3]
  Relative Volatility: 1.35
[4]; [8]
  Relative Volatility: 1.6
[2]; [7]
  Relative Volatility: 1.4

## CC(C)CC(=O)CC(C)C [Diisobutyl ketone]
[1]
  Relative Volatility: 1.4
[2]; [7]
  Relative Volatility: 1.4

## CN(C)C=O [Dimethylformamide]
[2]
  Relative Volatility: 4.5

## CCCC(=O)OCC [Ethyl butyrate]
[1]
  Relative Volatility: 1.5

## CCOCCC(=O)OCC [Ethyl ethoxy propionate]
[1]
  Relative Volatility: 1.45

## CCOC(=O)CC(C)C [Ethyl isovalerate]
[1]
  Relative Volatility: 1.5
[2]; [7]
  Relative Volatility: 1.45

## CCOC(=O)CC [Ethyl propionate]
[1]
  Relative Volatility: 2.4

## CCCCC(=O)OCC [Ethyl valerate]
[1]
  Relative Volatility: 1.65
[2]; [7]
  Relative Volatility: 3.0

## CCCCCCCO [Heptyl alcohol]
[3]
  Relative Volatility: 1.55
[4]; [8]
  Relative Volatility: 1.95

## CCCCCCOC(C)=O [Hexyl acetate]
[1]
  Relative Volatility: 1.4

## CCCCCCO [Hexyl alcohol]
[3]
  Relative Volatility: 2.6

## CC(=O)OCCC(C)C [Isoamyl acetate]
[1]
  Relative Volatility: 1.5

## CC(C)CCO [Isoamyl alcohol]
[4]; [8]
  Relative Volatility: 1.9

## CC(=O)OCC(C)C [Isobutyl acetate]
[1]
  Relative Volatility: 1.4

## CCCC(=O)OCC(C)C [Isobutyl butyrate]
[1]
  Relative Volatility: 1.65

## CC(C)COC(=O)C(C)C [Isobutyl isobutyrate]
[1]
  Relative Volatility: 1.45
[2]
  Relative Volatility: 1.5

## CC(C)CCCCCCCO [Isodecyl alcohol]
[2]
  Relative Volatility: 3.6

## CC(C)CCCO [Isohexyl alcohol]
[4]; [8]
  Relative Volatility: 2.6

## CC(C)CCCCCCO [Isononyl alcohol]
[3]
  Relative Volatility: 1.35

## CC(C)CCCCCO [Isooctanol]
[4]; [8]
  Relative Volatility: 1.6

## CC(C)CCCCCO [Isooctyl alcohol]
[3]
  Relative Volatility: 1.7

## CC1=CC(=O)CC(C)(C)C1 [Isophorone]
[4]; [8]
  Relative Volatility: 1.6
[2]; [7]
  Relative Volatility: 1.45

## CC(=O)CCC(C)C [Methyl isoamyl ketone]
[1]
  Relative Volatility: 1.4

## CC(C)CC(C)O (centres unmarked) [Methyl isobutyl carbinol]
[2]; [7]
  Relative Volatility: 2.4

## CC(=O)CC(C)C [Methyl isobutyl ketone]
[1]
  Relative Volatility: 1.3

## CC(=O)C(C)C [Methyl isopropyl ketone]
[1]
  Relative Volatility: 1.3

## CCCCCCCCCO [Nonyl alcohol]
[4]; [8]
  Relative Volatility: 3.8

## OCCc1ccccc1 [Phenethyl alcohol]
[4]; [8]
  Relative Volatility: 1.55
[2]; [7]
  Relative Volatility: 2.5

## O=S1(=O)CCCC1 [Sulfolane]
[2]; [7]
  Relative Volatility: 2.5

## OCC1CCCO1 (centres unmarked) [Tetrahydrofurfuryl alcohol]
[3]
  Relative Volatility: 1.65
[4]; [8]
  Relative Volatility: 2.4
[2]
  Relative Volatility: 2.2

## CCCCCOC(C)=O [n-Amyl acetate]
[1]
  Relative Volatility: 1.7

## CCCCOC(C)=O [n-Butyl acetate]
[1]; [9]
  liquid composition, t-butanol: 31.7%
  liquid composition, trichloroethylene: 68.3%
  vapor composition, t-butanol: 55.5%
  vapor composition, trichloroethylene: 44.5%
[1]; Example 7: 70 g azeotrope, 30 g agent, refluxed fourteen hours
  relative volatility of t-butanol to trichloroethylene: 1.7
[1]
  Relative Volatility: 1.7
[5]; 1 hr
  Relative Volatility (per theoretical plate): 1.63
[5]; 2 hrs
  Relative Volatility (average, t-butanol to trichloroethylene, per theoretical plate): 2.15
[5]; bottoms, 1 hr
  Weight % C2 H Cl3: 6.1%
  Weight % t-Butanol: 93.9%
[5]; bottoms, 2 hrs
  Weight % C2 H Cl3: 4.1%
  Weight % t-Butanol: 95.9%
[5]; [10]
  Weight % C2 H Cl3: 95.9%
  Weight % t-Butanol: 4.1%
[5]; overhead, 1 hr
  Weight % C2 H Cl3: 70.3%
  Weight % t-Butanol: 29.7%
[5]; overhead, 2 hrs
  Weight % C2 H Cl3: 92.2%
  Weight % t-Butanol: 7.8%
[5]; [11]
  Weight % C2 H Cl3: 7.8%
  Weight % t-Butanol: 92.2%

## CCCCCCCCCCO [n-Decanol]
[4]; [8]
  Relative Volatility: 3.9
[2]; [7]
  Relative Volatility: 2.4

## CCCCCCO [n-Hexyl alcohol]
[2]; [7]
  Relative Volatility: 3.1

## CCCCCCCCCO [n-Nonyl alcohol]
[2]; [7]
  Relative Volatility: 2.5

## CCCCCCCCO [n-Octanol]
[4]; Example 3, refluxed five hours
  liquid composition, isobutanol: 6.1%
  liquid composition, trichloroethylene: 93.9%
  vapor composition, isobutanol: 4.6%
  vapor composition, trichloroethylene: 95.4%
[4]; Example 3: 70 g azeotrope, 30 g agent, refluxed five hours
  Relative Volatility: 1.3
[4]; [8]
  Relative Volatility: 1.3
[2]; [7]
  Relative Volatility: 2.3
[6]; 1 hr
  Relative Volatility (per theoretical plate): 1.275
[6]; 2 hrs
  Relative Volatility (average, per theoretical plate): 1.31
[6]; bottoms, 1 hr
  Weight % C2 H Cl3: 84.0%
  Weight % Isobutanol: 16.0%
[6]; bottoms, 2 hrs
  Weight % C2 H Cl3: 84.8%
  Weight % Isobutanol: 15.2%
[6]; overhead, 1 hr
  Weight % C2 H Cl3: 96.9%
  Weight % Isobutanol: 3.1%
[6]; overhead, 2 hrs
  Weight % C2 H Cl3: 97.7%
  Weight % Isobutanol: 2.3%

## CCCOC(C)=O [n-Propyl acetate]
[1]
  Relative Volatility: 2.9

From patent US5118392A, “Separation of trichloroethylene from a butyl alcohol by extractive distillation” (priority 1991, dated 1992)
